The results in this text go back to ChEMBL document CHEMBL1201862, “PubChem BioAssay data set” (2004).

Some test systems named below: COLO 205; HOP-92; A498; DU-145; SF-539; HT-29; SW-620; Hs-578T; MDA-MB-435; 786-0; SK-MEL-28; TK-10; SK-MEL-5; NCI/ADR-RES; A549; Malme-3M; NCI-H522; UO-31; MDA-N; SK-OV-3.
What all share (assay): NCI anticancer screen, dose series, 48 h

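Cultured in 96-well plates, cells were exposed to test compound for 48 hours across five concentrations. Here, GI50 denotes the concentration required for 50% inhibition of growth.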 Calls of active or inactive are those of the source. Rule as the data show it: active = GI50 up to about 1.1 µM and inactive = higher.

For the molecule `COc1ccc(/[N+]([O-])=C/c2ccccc2OC(=S)S)cc1`, the GI50 was 30.1 µM (inactive) with COLO 205; 12.4 µM (inactive) in the experiment on HOP-92; 26.1 µM (inactive) in the experiment on A498; 39.9 µM (inactive) with DU-145; 22.6 µM (inactive) in the experiment on SF-539; 22.4 µM (inactive) with HT-29. In addition, the GI50 with SW-620 was 39.8 µM (inactive); in the experiment on Hs-578T, 33.7 µM (inactive); with MDA-MB-435, 21.4 µM (inactive); in the experiment with 786-0, 24.9 µM (inactive); with SK-MEL-28, 72.8 µM (inactive); in the experiment on TK-10 it was 80.7 µM (inactive). The GI50 was 30.5 µM (inactive) with SK-MEL-5; 28.1 µM (inactive) in the experiment on NCI/ADR-RES; > 100 µM (inactive) in the experiment with A549; > 100 µM (inactive) in the experiment on Malme-3M; 25.1 µM (inactive) in the experiment with NCI-H522; 24.6 µM (inactive) in the experiment on UO-31. The GI50 in the experiment with MDA-N was 24.7 µM (inactive); with SK-OV-3 it was 86.1 µM (inactive).

With `O=C1CCCC2=C(N1)C(=O)C=CC2=O`, the GI50 in the experiment with COLO 205 was 23.8 µM (inactive); with HOP-92, 22.2 µM (inactive); in the experiment with A498, 43.3 µM (inactive); in the experiment with DU-145, 17.5 µM (inactive); in the experiment on SF-539, 44.4 µM (inactive); in the experiment on HT-29 it was 42.8 µM (inactive). The GI50 is 23.1 µM (inactive) with SW-620; 29 µM (inactive) with Hs-578T; 18.6 µM (inactive) in the experiment with MDA-MB-435; 42.5 µM (inactive) in the experiment with 786-0; 45.4 µM (inactive) in the experiment with SK-MEL-28; 42.4 µM (inactive) with TK-10. Besides, the GI50 with SK-MEL-5 is 42.1 µM (inactive); with NCI/ADR-RES it was 26.8 µM (inactive); with A549, > 63.1 µM (inactive); with Malme-3M, 39.4 µM (inactive); in the experiment with NCI-H522, 13.6 µM (inactive); in the experiment on UO-31 it was 43.7 µM (inactive). Besides, the GI50 in the experiment with MDA-N is 16.8 µM (inactive); with SK-OV-3, > 100 µM (inactive).

As to `COC(=O)c1cccc(OC)c1C#Cc1c(OC)cccc1OC`, the GI50 in the experiment on COLO 205, with HOP-92, in the experiment with A498, in the experiment with DU-145, with SF-539 and with HT-29 was > 100 µM (inactive) throughout. Moreover, the GI50 in the experiment with SW-620 is > 100 µM (inactive); with Hs-578T it was > 100 µM (inactive); with MDA-MB-435, 47.8 µM (inactive); in the experiment on 786-0 it was > 100 µM (inactive); with SK-MEL-28, > 100 µM (inactive); in the experiment on TK-10, > 100 µM (inactive). For the same molecule, the GI50 in the experiment on SK-MEL-5 was > 100 µM (inactive); with NCI/ADR-RES, > 100 µM (inactive); in the experiment with A549, > 100 µM (inactive); in the experiment with Malme-3M it was > 100 µM (inactive); with NCI-H522, 0.47 µM (active); in the experiment with UO-31 it was > 100 µM (inactive). Moreover, the GI50 in the experiment on MDA-N was 53.2 µM (inactive); in the experiment with SK-OV-3, > 100 µM (inactive).

As to `N#C/C(C(=O)Nc1ccccc1)=C(/N)N1CCCC1`, the GI50 is > 100 µM (inactive) in the experiment with COLO 205; > 100 µM (inactive) in the experiment on HOP-92; > 100 µM (inactive) in the experiment with A498; > 100 µM (inactive) in the experiment with DU-145; > 100 µM (inactive) in the experiment on SF-539; 88.1 µM (inactive) in the experiment on HT-29. The GI50 with SW-620, with Hs-578T, in the experiment on MDA-MB-435, in the experiment on 786-0, in the experiment on SK-MEL-28 and in the experiment on TK-10 was > 100 µM (inactive) each time. Further, the GI50 in the experiment on SK-MEL-5 was > 100 µM (inactive); in the experiment on NCI/ADR-RES, > 100 µM (inactive); in the experiment on A549, > 100 µM (inactive); with Malme-3M, > 100 µM (inactive); in the experiment on NCI-H522, > 100 µM (inactive); in the experiment on UO-31, 97.9 µM (inactive). The GI50 with MDA-N and in the experiment with SK-OV-3 was > 100 µM (inactive) each time.

For the molecule `O=C1NC(Nc2ccccc2)=N/C1=C\c1c(Cl)cccc1Cl`, the GI50 is 31.3 µM (inactive) in the experiment with COLO 205; 11.9 µM (inactive) in the experiment on HOP-92; 32.3 µM (inactive) with A498; 24.7 µM (inactive) in the experiment on DU-145; 22.1 µM (inactive) with SF-539; 30.6 µM (inactive) with HT-29. Moreover, the GI50 was 36.1 µM (inactive) in the experiment on SW-620; 25.8 µM (inactive) in the experiment with Hs-578T; 32.4 µM (inactive) with MDA-MB-435; 15.1 µM (inactive) in the experiment on 786-0; 30.5 µM (inactive) in the experiment on SK-MEL-28; 18.9 µM (inactive) in the experiment on TK-10. Also, the GI50 was 16.3 µM (inactive) with SK-MEL-5; 23.6 µM (inactive) with NCI/ADR-RES; 18.2 µM (inactive) in the experiment with A549; 22.7 µM (inactive) in the experiment on Malme-3M; 53.3 µM (inactive) in the experiment with NCI-H522; 4.42 µM (inactive) in the experiment with UO-31. Also, the GI50 in the experiment on MDA-N was 19.8 µM (inactive); in the experiment with SK-OV-3, 21.6 µM (inactive).

Consider `COC(=O)C1CCC(=O)N1C(c1ccccc1)c1ccc(OC)c(OC)c1` (stereo not given), for which the GI50 in the experiment on COLO 205, with HOP-92, in the experiment with A498, in the experiment on DU-145, with SF-539 and in the experiment with HT-29 was > 100 µM (inactive) in each case. Further, the GI50 with SW-620, with Hs-578T, with MDA-MB-435, in the experiment on 786-0, with SK-MEL-28 and in the experiment with TK-10 was > 100 µM (inactive) in each case. The GI50 with SK-MEL-5, in the experiment on NCI/ADR-RES, with A549, with Malme-3M, in the experiment with NCI-H522 and with UO-31 was > 100 µM (inactive) throughout. In addition, the GI50 in the experiment with MDA-N and in the experiment with SK-OV-3 was > 100 µM (inactive) each time.

For `CCOC(=O)C(NC(=O)c1ccccc1)(N1CCN(c2cc3c(cc2F)c(=O)c(C(=O)O)cn3CC)CC1)C(F)(F)F` (stereo not given), the GI50 in the experiment with COLO 205 was 17.1 µM (inactive); in the experiment on HOP-92, 28.8 µM (inactive); in the experiment on A498 it was 24.5 µM (inactive); in the experiment on DU-145 it was 59.3 µM (inactive); with SF-539 it was 26.5 µM (inactive); with HT-29, 29 µM (inactive). Besides, the GI50 in the experiment on SW-620 was 47.6 µM (inactive); in the experiment with Hs-578T, 43.3 µM (inactive); in the experiment on MDA-MB-435 it was 29.2 µM (inactive); in the experiment with 786-0 it was 39.7 µM (inactive); with SK-MEL-28 it was < 0.01 µM (active); in the experiment on TK-10, 29.4 µM (inactive). Moreover, the GI50 is 22.9 µM (inactive) with SK-MEL-5; 41.4 µM (inactive) with NCI/ADR-RES; 39.9 µM (inactive) in the experiment on A549; 22 µM (inactive) with Malme-3M; 16.7 µM (inactive) in the experiment with NCI-H522; 31.3 µM (inactive) with UO-31. Besides, the GI50 is 37.7 µM (inactive) in the experiment on MDA-N and 34.3 µM (inactive) in the experiment with SK-OV-3.

`N#CC1=CNc2sccc2S1(=O)=O`: the GI50 in the experiment on COLO 205, in the experiment on HOP-92, in the experiment on A498, in the experiment with DU-145, in the experiment on SF-539 and with HT-29 was > 100 µM (inactive) in each case. The GI50 in the experiment with SW-620 was > 100 µM (inactive); with Hs-578T it was > 100 µM (inactive); with MDA-MB-435 it was 89.7 µM (inactive); in the experiment with 786-0, > 100 µM (inactive); with SK-MEL-28 it was > 100 µM (inactive); in the experiment on TK-10, > 100 µM (inactive). Also, the GI50 with SK-MEL-5 was 76.4 µM (inactive); in the experiment with NCI/ADR-RES, > 100 µM (inactive); in the experiment on A549, > 100 µM (inactive); in the experiment on Malme-3M, > 100 µM (inactive); with NCI-H522 it was > 100 µM (inactive); in the experiment on UO-31, 92.9 µM (inactive). Further, the GI50 in the experiment with MDA-N and with SK-OV-3 was > 100 µM (inactive) in each case.

Take `CC1C2CC(CC23OCC(CCl)O3)C1(C)C` (stereo not given): the GI50 in the experiment on COLO 205, in the experiment with HOP-92, with A498, with DU-145, with SF-539 and in the experiment with HT-29 was > 100 µM (inactive) throughout. The GI50 in the experiment on SW-620, in the experiment on Hs-578T, in the experiment with MDA-MB-435, in the experiment on 786-0, in the experiment on SK-MEL-28 and with TK-10 was > 100 µM (inactive) in each case. Besides, the GI50 in the experiment with SK-MEL-5, in the experiment with NCI/ADR-RES, in the experiment with A549, in the experiment with Malme-3M, in the experiment on NCI-H522 and in the experiment on UO-31 was > 100 µM (inactive) each time. Besides, the GI50 with MDA-N and with SK-OV-3 was > 100 µM (inactive) each time.

Regarding `COc1ccc(N(C(=O)Nc2ccc(Cl)c(Cl)c2)c2ccccc2)cc1`, the GI50 with COLO 205, in the experiment with HOP-92, in the experiment on A498, in the experiment on DU-145, in the experiment on SF-539 and with HT-29 was > 10 µM (inactive) throughout. Besides, the GI50 in the experiment with SW-620, in the experiment on Hs-578T, with MDA-MB-435, in the experiment on 786-0, in the experiment with SK-MEL-28 and in the experiment with TK-10 was > 10 µM (inactive) in each case. Further, the GI50 in the experiment on SK-MEL-5, in the experiment with NCI/ADR-RES, in the experiment on A549, in the experiment on Malme-3M, in the experiment on NCI-H522 and with UO-31 was > 10 µM (inactive) each time. Also, the GI50 with MDA-N and with SK-OV-3 was > 10 µM (inactive) each time.
